In ChEMBL document CHEMBL1201862, “PubChem BioAssay data set” (2004):
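Test compounds were applied to cells in 96-well plates for 48 hours at 5 doses. At the GI50, growth is halved.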 Calls of active or inactive are those of the source. Cut-off read from the data, not from the text of the source: active = GI50 up to about 1.1 µM and inactive = higher.

Tests used:
Assay in all cases: NCI-60 cell line screen, 48 h
786-0 = tested on: 786-0
A549 = tested on: A549
ACHN = tested on: ACHN
CAKI-1 = tested on: CAKI-1
COLO 205 = tested on: COLO 205
DMS-273 = tested on: DMS-273
EKVX = tested on: EKVX
HCC 2998 = tested on: HCC 2998
HCT-116 = tested on: HCT-116
HCT-15 = tested on: HCT-15
HOP-92 = tested on: HOP-92
HT-29 = tested on: HT-29
IGROV-1 = tested on: IGROV-1
K562 = tested on: K562
KM-20L2 = tested on: KM-20L2
KM12 = tested on: KM12
LXFL 529 = tested on: LXFL 529
M19-MEL = tested on: M19-MEL
MOLT-4 = tested on: MOLT-4
Malme-3M = tested on: Malme-3M
NCI-H226 = tested on: NCI-H226
NCI-H23 = tested on: NCI-H23
NCI-H522 = tested on: NCI-H522
OVCAR-3 = tested on: OVCAR-3
OVCAR-4 = tested on: OVCAR-4
OVCAR-5 = tested on: OVCAR-5
OVCAR-8 = tested on: OVCAR-8
RPMI-8226 = tested on: RPMI-8226
RXF 393 = tested on: RXF 393
SF-268 = tested on: SF-268
SF-295 = tested on: SF-295
SK-MEL-28 = tested on: SK-MEL-28
SK-MEL-2 = tested on: SK-MEL-2
SK-MEL-5 = tested on: SK-MEL-5
SK-OV-3 = tested on: SK-OV-3
SN12C = tested on: SN12C
SNB-19 = tested on: SNB-19
SNB-75 = tested on: SNB-75
SNB-78 = tested on: SNB-78
SR = tested on: SR
SW-620 = tested on: SW-620
TK-10 = tested on: TK-10
U-251 = tested on: U-251
UACC-257 = tested on: UACC-257
UACC-62 = tested on: UACC-62
UO-31 = tested on: UO-31
A498 = tested on: A498
CCRF-CEM = tested on: CCRF-CEM
DLD-1 = tested on: DLD-1
DMS-114 = tested on: DMS-114
HL-60 = tested on: HL-60
HOP-18 = tested on: HOP-18
HOP-62 = tested on: HOP-62
LOX IMVI = tested on: LOX IMVI
MCF7 = tested on: MCF7
NCI-H460 = tested on: NCI-H460
NCI/ADR-RES = tested on: NCI/ADR-RES
SF-539 = tested on: SF-539
XF498 = tested on: XF498
M14 = tested on: M14

C/C=C/C(=O)[C@@H](O)C(C)C
GI50 (786-0): > 100 µM (inactive)
GI50 (A549): > 100 µM (inactive)
GI50 (ACHN): > 100 µM (inactive)
GI50 (CAKI-1): > 100 µM (inactive)
GI50 (COLO 205): > 100 µM (inactive)
GI50 (DMS-273): > 100 µM (inactive)
GI50 (EKVX): > 100 µM (inactive)
GI50 (HCC 2998): > 100 µM (inactive)
GI50 (HCT-116): > 100 µM (inactive)
GI50 (HCT-15): > 100 µM
GI50 (HOP-92): > 100 µM (inactive)
GI50 (HT-29): > 100 µM (inactive)
GI50 (IGROV-1): > 100 µM (inactive)
GI50 (K562): > 100 µM (inactive)
GI50 (KM-20L2): > 100 µM (inactive)
GI50 (KM12): > 100 µM (inactive)
GI50 (LXFL 529): > 100 µM (inactive)
GI50 (M19-MEL): > 100 µM (inactive)
GI50 (MOLT-4): > 100 µM (inactive)
GI50 (Malme-3M): > 100 µM (inactive)
GI50 (NCI-H226): > 100 µM (inactive)
GI50 (NCI-H23): > 100 µM (inactive)
GI50 (NCI-H522): > 100 µM (inactive)
GI50 (OVCAR-3): > 100 µM (inactive)
GI50 (OVCAR-4): > 100 µM (inactive)
GI50 (OVCAR-5): > 100 µM (inactive)
GI50 (OVCAR-8): > 100 µM (inactive)
GI50 (RPMI-8226): > 100 µM (inactive)
GI50 (RXF 393): > 100 µM (inactive)
GI50 (SF-268): > 100 µM (inactive)
GI50 (SF-295): > 100 µM (inactive)
GI50 (SK-MEL-28): > 100 µM (inactive)
GI50 (SK-MEL-2): > 100 µM (inactive)
GI50 (SK-MEL-5): > 100 µM (inactive)
GI50 (SK-OV-3): > 100 µM (inactive)
GI50 (SN12C): > 100 µM (inactive)
GI50 (SNB-19): > 100 µM (inactive)
GI50 (SNB-75): > 100 µM (inactive)
GI50 (SNB-78): > 100 µM (inactive)
GI50 (SR): > 100 µM (inactive)
GI50 (SW-620): > 100 µM (inactive)
GI50 (TK-10): > 100 µM (inactive)
GI50 (U-251): > 100 µM (inactive)
GI50 (UACC-257): > 100 µM (inactive)
GI50 (UACC-62): > 100 µM (inactive)
GI50 (UO-31): > 100 µM (inactive)

CCOC(=O)CN(CC)C(=O)NC12CC3CC(CC(C3)C1)C2
GI50 (A498): 136 µM (inactive)
GI50 (A549): 222 µM (inactive)
GI50 (CAKI-1): 169 µM (inactive)
GI50 (CCRF-CEM): 211 µM (inactive)
GI50 (COLO 205): 141 µM (inactive)
GI50 (DLD-1): 65.8 µM (inactive)
GI50 (DMS-114): 134 µM (inactive)
GI50 (DMS-273): 233 µM (inactive)
GI50 (EKVX): 207 µM (inactive)
GI50 (HCC 2998): 222 µM (inactive)
GI50 (HCT-116): 189 µM (inactive)
GI50 (HCT-15): 220 µM
GI50 (HL-60): 103 µM (inactive)
GI50 (HOP-18): 148 µM (inactive)
GI50 (HOP-62): 188 µM (inactive)
GI50 (HOP-92): 67 µM (inactive)
GI50 (HT-29): 166 µM (inactive)
GI50 (IGROV-1): 276 µM (inactive)
GI50 (K562): 180 µM (inactive)
GI50 (KM-20L2): 170 µM (inactive)
GI50 (KM12): 255 µM (inactive)
GI50 (LOX IMVI): 151 µM (inactive)
GI50 (M19-MEL): 184 µM (inactive)
GI50 (MCF7): 177 µM (inactive)
GI50 (MOLT-4): 133 µM (inactive)
GI50 (Malme-3M): 152 µM (inactive)
GI50 (NCI-H226): 160 µM (inactive)
GI50 (NCI-H23): 208 µM (inactive)
GI50 (NCI-H460): 200 µM (inactive)
GI50 (NCI-H522): 155 µM (inactive)
GI50 (NCI/ADR-RES): 196 µM (inactive)
GI50 (OVCAR-3): 105 µM (inactive)
GI50 (OVCAR-4): 175 µM (inactive)
GI50 (OVCAR-5): 225 µM (inactive)
GI50 (OVCAR-8): 292 µM (inactive)
GI50 (RPMI-8226): 141 µM (inactive)
GI50 (RXF 393): 173 µM (inactive)
GI50 (SF-268): 281 µM (inactive)
GI50 (SF-295): 230 µM (inactive)
GI50 (SF-539): 244 µM (inactive)
GI50 (SK-MEL-28): 269 µM (inactive)
GI50 (SK-MEL-2): 131 µM (inactive)
GI50 (SK-MEL-5): 109 µM (inactive)
GI50 (SK-OV-3): 218 µM (inactive)
GI50 (SN12C): 288 µM (inactive)
GI50 (SNB-19): 339 µM (inactive)
GI50 (SNB-75): 92.9 µM (inactive)
GI50 (SNB-78): 240 µM (inactive)
GI50 (SW-620): 219 µM (inactive)
GI50 (U-251): 246 µM (inactive)
GI50 (UACC-257): 144 µM (inactive)
GI50 (UACC-62): 116 µM (inactive)
GI50 (UO-31): 139 µM (inactive)
GI50 (XF498): 125 µM (inactive)

CC1=CC2C(C=C1)S(=O)(=O)N1CC21c1ccccc1 (configuration not stated)
GI50 (786-0): > 100 µM (inactive)
GI50 (A498): > 100 µM (inactive)
GI50 (A549): > 100 µM (inactive)
GI50 (ACHN): > 100 µM (inactive)
GI50 (CAKI-1): 44.2 µM (inactive)
GI50 (CCRF-CEM): > 100 µM (inactive)
GI50 (COLO 205): > 100 µM (inactive)
GI50 (DLD-1): > 100 µM (inactive)
GI50 (DMS-114): 21.4 µM (inactive)
GI50 (DMS-273): > 100 µM (inactive)
GI50 (HCC 2998): > 100 µM (inactive)
GI50 (HCT-116): > 100 µM (inactive)
GI50 (HCT-15): > 100 µM
GI50 (HL-60): > 100 µM (inactive)
GI50 (HOP-18): 54 µM (inactive)
GI50 (HOP-62): > 100 µM (inactive)
GI50 (HOP-92): 15.1 µM (inactive)
GI50 (HT-29): > 100 µM (inactive)
GI50 (IGROV-1): > 100 µM (inactive)
GI50 (K562): 69.2 µM (inactive)
GI50 (KM-20L2): > 100 µM (inactive)
GI50 (KM12): > 100 µM (inactive)
GI50 (LOX IMVI): 33.5 µM (inactive)
GI50 (LXFL 529): > 100 µM (inactive)
GI50 (M14): > 100 µM (inactive)
GI50 (M19-MEL): > 100 µM (inactive)
GI50 (Malme-3M): > 100 µM (inactive)
GI50 (NCI-H23): > 100 µM (inactive)
GI50 (NCI-H460): > 100 µM (inactive)
GI50 (NCI-H522): > 100 µM (inactive)
GI50 (OVCAR-3): > 100 µM (inactive)
GI50 (OVCAR-5): > 100 µM (inactive)
GI50 (OVCAR-8): > 100 µM (inactive)
GI50 (RPMI-8226): > 100 µM (inactive)
GI50 (SF-268): > 100 µM (inactive)
GI50 (SF-295): > 100 µM (inactive)
GI50 (SF-539): > 100 µM (inactive)
GI50 (SK-MEL-28): > 100 µM (inactive)
GI50 (SK-MEL-2): > 100 µM (inactive)
GI50 (SK-MEL-5): > 100 µM (inactive)
GI50 (SK-OV-3): > 100 µM (inactive)
GI50 (SN12C): > 100 µM (inactive)
GI50 (SNB-19): > 100 µM (inactive)
GI50 (SNB-75): > 100 µM (inactive)
GI50 (SNB-78): > 100 µM (inactive)
GI50 (SR): 90.8 µM (inactive)
GI50 (SW-620): > 100 µM (inactive)
GI50 (TK-10): > 100 µM (inactive)
GI50 (U-251): > 100 µM (inactive)
GI50 (UACC-257): > 100 µM (inactive)
GI50 (UACC-62): 64.6 µM (inactive)
GI50 (UO-31): 55.1 µM (inactive)
